Values quoted from earlier work as cited in PubChem BioAssay AID1259409 (Chemical Carcinogenesis Research Information System (CCRIS), 2018).
“And” between values parts separate entries of the source, which are not always exact repeats. Equal entries are not always repeated.

Tested on: rodent chemically induced tumor inhibition, incidence and multiplicity
Assay: CCRIS tumor inhibitor studies

O=c1cc(-c2ccccc2)oc2ccc3ccccc3c12
tumour outcome (control, treated, inhibition, significance) (Carcinogen: 2-AMINO-1-METHYL-6-PHENYLIMIDAZO[4,5-B]PYRIDINE [105650-23-5], Dose [Inhibitor]: 1000 PPM IN DIET FOR 4 WK BEGINNING WK PRIOR TO FIRST CARCINOGEN DOSE (STUDY DURATION: 25 WK), Route [Inhibitor]: ORAL, Species: RAT, Strain/Sex: SPRAGUE-DAWLEY/FEMALE, Target Tissue: Type of Lesion: MAMMARY GLAND: FIBROADENOMA OR DUCTAL CARCINOMA, Dose [Carcinogen]: 85 MG/KG BW 2X/WK FOR 4 WK (STUDY DURATION: 25 WK), Promoter: NONE): 67.7%, 12.5%, 82%, p<0.001 | tumour outcome (control, treated, inhibition, significance) (Carcinogen: 7,12-DIMETHYLBENZ[A]ANTHRACENE [57-97-6], Dose [Inhibitor]: 500 PPM IN DIET FOR 10 WK BEGINNING 1 WK PRIOR TO FIRST CARCINOGEN DOSE (STUDY DURATION: 11 MONTHS), Route [Inhibitor]: ORAL, Species: FISH, Strain/Sex: RAINBOW TROUT/MALE, FEMALE, Target Tissue: Type of Lesion: LIVER: TUMOR, Dose [Carcinogen]: 800 PPM IN DIET FOR 9 WK (STUDY DURATION: 11 MONTHS), Promoter: NONE): 4%, 7%, -75%, not significant | tumour outcome (control, treated, inhibition, significance) (Carcinogen: 7,12-DIMETHYLBENZ[A]ANTHRACENE [57-97-6], Dose [Inhibitor]: 500 PPM IN DIET FOR 10 WK BEGINNING 1 WK PRIOR TO FIRST CARCINOGEN DOSE (STUDY DURATION: 11 MONTHS), Route [Inhibitor]: ORAL, Species: FISH, Strain/Sex: RAINBOW TROUT/MALE, FEMALE, Target Tissue: Type of Lesion: STOMACH: TUMOR, Dose [Carcinogen]: 800 PPM IN DIET FOR 9 WK (STUDY DURATION: 11 MONTHS), Promoter: NONE): 92%, 28%, 70%, p<0.001 | tumour outcome (control, treated, inhibition, significance) (Carcinogen: 7,12-DIMETHYLBENZ[A]ANTHRACENE [57-97-6], Dose [Inhibitor]: 500 PPM IN DIET FOR 10 WK BEGINNING 1 WK PRIOR TO FIRST CARCINOGEN DOSE (STUDY DURATION: 11 MONTHS), Route [Inhibitor]: ORAL, Species: FISH, Strain/Sex: RAINBOW TROUT/MALE, FEMALE, Target Tissue: Type of Lesion: SWIM BLADDER: TUMOR, Dose [Carcinogen]: 800 PPM IN DIET FOR 9 WK (STUDY DURATION: 11 MONTHS), Promoter: NONE): 46%, 27%, 41%, p<0.001 | tumour outcome (control, treated, inhibition, significance) (Carcinogen: 7,12-DIMETHYLBENZ[A]ANTHRACENE, 57-97-6, Dose [Inhibitor]: 100 UG APPLIED ONCE 5 MIN BEFORE DMBA (STUDY DURATION: 28 WK), Route [Inhibitor]: DERMAL, Species: MOUSE, Strain/Sex: CD-1/FEMALE, Target Tissue: Type of Lesion: SKIN: PAPILLOMA, Dose [Carcinogen]: 2.56 UG APPLIED ONCE 5 MIN AFTER INHIBITOR, Promoter: 12-O-TETRADECANOYLPHORBOL-13-ACETATE, 16561-29-8): 82%, 65%, 21%, not calculated | tumour outcome (control, treated, inhibition, significance) (Carcinogen: 7,12-DIMETHYLBENZ[A]ANTHRACENE, 57-97-6, Dose [Inhibitor]: 1000 UG APPLIED ONCE 5 MIN BEFORE DMBA (STUDY DURATION: 28 WK), Route [Inhibitor]: DERMAL, Species: MOUSE, Strain/Sex: CD-1/FEMALE, Target Tissue: Type of Lesion: SKIN: PAPILLOMA, Dose [Carcinogen]: 2.56 UG APPLIED ONCE 5 MIN AFTER INHIBITOR, Promoter: 12-O-TETRADECANOYLPHORBOL-13-ACETATE, 16561-29-8): 82%, 60%, 27%, not calculated | tumour outcome (control, treated, inhibition, significance) (Carcinogen: DIETHYLNITROSAMINE, 55-18-5, Dose [Inhibitor]: 500 PPM IN DIET FOR 6 WK PRIOR TO CARCINOGEN DOSE (STUDY DURATION: 48 WK), Route [Inhibitor]: ORAL, Species: FISH, Strain/Sex: MT. SHASTA RAINBOW/MALE, FEMALE, Target Tissue: Type of Lesion: LIVER: HEPATOCELLULAR CARCINOMA AND HEPATOCHOLANGIOCELLULAR CARCINOMA, Dose [Carcinogen]: 250 PPM AQUEOUS SOLUTION FOR 24 HR, Promoter: NONE USED): 105/131 (80%), 90/98 (92%), -15%, p=0.0102 | tumour outcome (control, treated, inhibition, significance) (Carcinogen: N-NITROSOETHYLUREA, 759-73-9, Dose [Inhibitor]: 0, 150 MG/KG IN OLIVE OIL 48 HR PRIOR TO CARCINOGEN DOSE (STUDY DURATION: 8 WK), Route [Inhibitor]: INTRAPERITONEAL, Species: MOUSE, Strain/Sex: AKR/FEMALE, Target Tissue: Type of Lesion: LUNG: TUMOR, Dose [Carcinogen]: 8 MG/KG IN 0.22 MOLAR SODIUM CITRATE BUFFER 1/WK FOR 4 WK, Promoter: NONE USED): 8/32 (25%), 8/35 (23%), 8%, not calculated | tumour outcome (control, treated, inhibition, significance) (Carcinogen: N-NITROSOETHYLUREA, 759-73-9, Dose [Inhibitor]: 0, 150 MG/KG IN OLIVE OIL 48 HR PRIOR TO CARCINOGEN DOSE (STUDY DURATION: 8 WK), Route [Inhibitor]: INTRAPERITONEAL, Species: MOUSE, Strain/Sex: C3H/HE/FEMALE, Target Tissue: Type of Lesion: LUNG: TUMOR, Dose [Carcinogen]: 8 MG/KG IN 0.22 MOLAR SODIUM CITRATE BUFFER 1/WK FOR 4 WK, Promoter: NONE USED): 26/33 (79%), 25/29 (86%), -9%, not calculated | tumour outcome (control, treated, inhibition, significance) (Carcinogen: N-NITROSOETHYLUREA, 759-73-9, Dose [Inhibitor]: 0, 150 MG/KG IN OLIVE OIL 48 HR PRIOR TO CARCINOGEN DOSE (STUDY DURATION: 8 WK), Route [Inhibitor]: INTRAPERITONEAL, Species: MOUSE, Strain/Sex: C57BL/FEMALE, Target Tissue: Type of Lesion: LUNG: TUMOR, Dose [Carcinogen]: 8 MG/KG IN 0.22 MOLAR SODIUM CITRATE BUFFER 1/WK FOR 4 WK, Promoter: NONE USED): 9/35 (26%), 17/29 (57%), -119%, not calculated | tumour outcome (control, treated, inhibition, significance) (Carcinogen: N-NITROSOETHYLUREA, 759-73-9, Dose [Inhibitor]: 0, 150 MG/KG IN OLIVE OIL 48 HR PRIOR TO CARCINOGEN DOSE (STUDY DURATION: 8 WK), Route [Inhibitor]: INTRAPERITONEAL, Species: MOUSE, Strain/Sex: DBA/FEMALE, Target Tissue: Type of Lesion: LUNG: TUMOR, Dose [Carcinogen]: 8 MG/KG IN 0.22 MOLAR SODIUM CITRATE BUFFER 1/WK FOR 4 WK, Promoter: NONE USED): 12/34 (35%), 15/34 (44%), -26%, not calculated | tumour outcome (control, treated, inhibition, significance) (Carcinogen: N-NITROSOETHYLUREA, 759-73-9, Dose [Inhibitor]: 0, 150 MG/KG IN OLIVE OIL 48 HR PRIOR TO CARCINOGEN DOSE (STUDY DURATION: 8 WK), Route [Inhibitor]: INTRAPERITONEAL, Species: MOUSE, Strain/Sex: SWISS/FEMALE, Target Tissue: Type of Lesion: LUNG: TUMOR, Dose [Carcinogen]: 8 MG/KG IN 0.22 MOLAR SODIUM CITRATE BUFFER 1/WK FOR 4 WK, Promoter: NONE USED): 26/27 (96%), 12/16 (75%), 22%, not calculated | tumour outcome (control, treated, inhibition, significance) (Dose [Inhibitor]: 0, 0.015% IN DIET FOR 9 WK BEGINNING 1 WK PRIOR TO AND CONTINUING DURING CARCINOGEN TREATMENT (STUDY DURATION: 42 WK), Route [Inhibitor]: ORAL, Species: RAT, Strain/Sex: F344/MALE, Target Tissue: Type of Lesion: LIVER: HEPATOMA, Dose [Carcinogen]: 25 UG 5 D/WK FOR 8 WK, Promoter: NONE USED): 15/15 (100%), 4/16 (25%), 75%, not calculated and 15/15 (100%), 5/15 (31%), 69%, not calculated | tumour outcome (control, treated, inhibition, significance) (Dose [Inhibitor]: 0, 50 PPM IN DIET BEGINNING 8 WK PRIOR TO CARCINOGEN AND CONTINUING FOR 6 WK POST CARCINOGEN (STUDY DURATION: 68 WK), Route [Inhibitor]: ORAL, Species: FISH, Strain/Sex: RAINBOW TROUT, Target Tissue: Type of Lesion: LIVER: HEPATOCELLULAR CARCINOMA, Dose [Carcinogen]: 20 PPB IN DIET FOR 2 WK, Promoter: NONE USED): 43/118 (36%), 20/117 (17%), 53%, p<0.05 | tumour outcome (control, treated, inhibition, significance) (Dose [Inhibitor]: 0, 500 PPM IN DIET BEGINNING 8 WK PRIOR TO CARCINOGEN AND CONTINUING FOR 6 WK POST CARCINOGEN (STUDY DURATION: 68 WK), Route [Inhibitor]: ORAL, Species: FISH, Strain/Sex: RAINBOW TROUT, Target Tissue: Type of Lesion: LIVER: HEPATOCELLULAR CARCINOMA, Dose [Carcinogen]: 20 PPB IN DIET FOR 2 WK, Promoter: NONE USED): 43/118 (36%), 7/120 (6%), 84%, p<0.01 | outcome (Dose [Inhibitor]: 0.005% IN DIET BEGINNING 4 WK PRIOR TO CARCINOGEN DOSE AND CONTINUING FOR 4 ADDITIONAL WK CONCURRENTLY WITH CARCINOGEN D, Route [Inhibitor]: ORAL, Species: FISH, Strain/Sex: MT. SHASTA RAINBOW TROUT, Target Tissue: Type of Lesion: LIVER: CHOLANGIOCELLULAR CARCINOMA OR ADENOMA, Dose [Carcinogen]: 10 PPB IN DIET FOR 4 WK, Promoter: NONE USED): 0/166, 1/177, 0% | tumour outcome (control, treated, inhibition, significance) (Dose [Inhibitor]: 0.005% IN DIET BEGINNING 4 WK PRIOR TO CARCINOGEN DOSE AND CONTINUING FOR 4 ADDITIONAL WK CONCURRENTLY WITH CARCINOGEN D, Route [Inhibitor]: ORAL, Species: FISH, Strain/Sex: MT. SHASTA RAINBOW TROUT, Target Tissue: Type of Lesion: LIVER: HEPATOCELLULAR CARCINOMA OR MIXED CARCINOMA OR HEPATOCELLULAR ADENOMA, Dose [Carcinogen]: 10 PPB IN DIET FOR 4 WK, Promoter: NONE USED): 39/166 (23%), 7/177 (4%), 83%, p<0.01 | tumour outcome (control, treated, inhibition, significance) (Dose [Inhibitor]: 0.005% IN DIET FOR 8 WK (STUDY DURATION: 1 YR), Route [Inhibitor]: ORAL, Species: FISH, Strain/Sex: MT. SHASTA RAINBOW TROUT, Target Tissue: Type of Lesion: LIVER: CHOLANGIOCELLULAR CARCINOMA OR ADENOMA, Dose [Carcinogen]: 0.5 PPM AQUEOUS SOLUTION FOR 30 MIN EXPOSURE OF EMBRYOS 21 D AFTER FERTILIZATION, Promoter: NONE USED): 8/182 (4%), 7/175 (4%), 0%, not calculated | outcome (Dose [Inhibitor]: 0.05% IN DIET BEGINNING 4 WK PRIOR TO CARCINOGEN DOSE AND CONTINUING FOR 4 ADDITIONAL WK CONCURRENTLY WITH CARCINOGEN DO, Route [Inhibitor]: ORAL, Species: FISH, Strain/Sex: MT. SHASTA RAINBOW TROUT, Target Tissue: Type of Lesion: LIVER: CHOLANGIOCELLULAR CARCINOMA OR ADENOMA, Dose [Carcinogen]: 10 PPB IN DIET FOR 4 WK, Promoter: NONE USED): 0/166 (0%), 0/172 (0%) | tumour outcome (control, treated, inhibition, significance) (Dose [Inhibitor]: 0.05% IN DIET BEGINNING 4 WK PRIOR TO CARCINOGEN DOSE AND CONTINUING FOR 4 ADDITIONAL WK CONCURRENTLY WITH CARCINOGEN DO, Route [Inhibitor]: ORAL, Species: FISH, Strain/Sex: MT. SHASTA RAINBOW TROUT, Target Tissue: Type of Lesion: LIVER: HEPATOCELLULAR CARCINOMA OR MIXED CARCINOMA OR HEPATOCELLULAR ADENOMA, Dose [Carcinogen]: 10 PPB IN DIET FOR 4 WK, Promoter: NONE USED): 39/166 (23%), 1/172 (0.6%), 97%, p<0.01
